Measured values published in ChEMBL document CHEMBL1201862, “PubChem BioAssay data set” (2004).
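Five concentrations, 48 hours, 96-well plates. The concentration for 50% growth inhibition is given as GI50.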 Active and inactive are the calls of the source. Cut-off read from the data, not from the text of the source: active = GI50 up to about 1.1 µM and inactive = higher.

Columns and labels:
Test in all cases: growth of human tumour cells (NCI), 48 h
[1] = test system: MOLT-4
[2] = test system: Hs-578T
[3] = test system: UO-31
[4] = test system: MCF7
[5] = test system: NCI-H226
[6] = test system: A549
[7] = test system: PC-3
[8] = test system: MDA-MB-231
[9] = test system: HT-29
[10] = test system: U-251
[11] = test system: MDA-MB-435
[12] = test system: DU-145
[13] = test system: T47D
[14] = test system: CAKI-1
[15] = test system: SF-295
[16] = test system: DLD-1
[17] = test system: M19-MEL
[18] = test system: SNB-78
[19] = test system: KM-20L2
[20] = test system: HCT-116

Measured: GI50

Nc1n[nH]c(Nc2ccc(Cl)cc2)c1P(=O)(c1ccccc1)c1ccccc1
inactive: [1] 27.2 µM | [2] 14.8 µM | [3] 29.4 µM | [4] 29 µM | [5] 24.3 µM | [6] 23.9 µM | [7] 19.9 µM | [8] 19.1 µM | [9] 24 µM | [10] 30.3 µM | [11] 19.1 µM | [12] 37.7 µM | [13] 58.7 µM | [14] 44.8 µM | [15] 18.6 µM

Nc1nc(SCCC/C=C/I)nc2c1ncn2C1OC(COP(=O)(O)O)C(O)C1O (stereo not given)
inactive: [1] > 100 µM | [16] > 100 µM | [17] > 100 µM | [5] > 100 µM | [18] > 100 µM | [6] > 100 µM | [19] > 100 µM | [20] > 100 µM | [9] > 100 µM | [10] > 100 µM | [15] > 100 µM

CCCCCOc1ccc(/C=N\c2ccc(CCc3ccc(/N=C/c4ccc(OCCCCC)cc4)cc3)cc2)cc1
inactive: [1] > 100 µM | [3] > 100 µM | [16] > 100 µM | [17] > 100 µM | [4] > 100 µM | [5] > 100 µM | [18] > 100 µM | [6] > 100 µM | [19] > 100 µM | [20] > 100 µM | [9] > 100 µM | [10] > 100 µM | [15] > 100 µM

Cn1c(=O)c2nc(NCCO)cnc2n(C)c1=O
inactive: [1] > 100 µM | [3] 48.9 µM | [16] > 100 µM | [17] 56.5 µM | [18] > 100 µM | [6] > 100 µM | [19] > 100 µM | [20] 62.8 µM | [9] > 100 µM | [10] 32.9 µM | [14] 95.5 µM | [15] 45.3 µM

Brc1ccc2c(c1)[C@H]1CCc3c([nH]c4ccccc34)[C@H]1N2
inactive: [1] 2.2 µM | [2] 25.4 µM | [3] 11.4 µM | [4] 3.42 µM | [5] 12.1 µM | [6] 14.8 µM | [7] 5.9 µM | [8] 1.6 µM | [20] 8.49 µM | [9] 14.1 µM | [10] 10.1 µM | [11] 13.4 µM | [12] 12.9 µM | [13] 3.11 µM | [14] 10.2 µM | [15] 11.6 µM

C[N+]1([O-])[C@H]2CC(OC(=O)[C@H](CO)c3ccccc3)C[C@H]1[C@H]1O[C@H]12 (stereo not given in full)
inactive: [1] > 100 µM | [2] > 100 µM | [3] > 100 µM | [4] > 100 µM | [5] > 100 µM | [6] > 100 µM | [7] > 100 µM | [8] > 100 µM | [20] > 100 µM | [9] > 100 µM | [10] > 100 µM | [11] > 100 µM | [12] > 100 µM | [13] > 100 µM | [14] > 100 µM | [15] > 100 µM

COC(=O)/C=C\n1ncc(=O)[nH]c1=O
inactive: [1] > 100 µM | [2] > 100 µM | [3] > 100 µM | [5] > 100 µM | [6] > 100 µM | [7] > 100 µM | [8] > 100 µM | [9] > 100 µM | [10] > 100 µM | [11] 99.5 µM | [12] > 100 µM | [13] > 100 µM | [14] > 100 µM

C=C(C)C1Cc2c(c3ccccc3n(C)c2=O)O1 (stereo not given)
inactive: [1] > 100 µM | [3] > 100 µM | [16] > 100 µM | [17] > 100 µM | [5] > 100 µM | [18] > 100 µM | [19] > 100 µM | [9] > 100 µM | [10] > 100 µM | [14] > 100 µM | [15] > 100 µM

CC(=O)Nc1ccc(Sc2nnc(NC(C)=O)s2)cc1
inactive: [1] > 100 µM | [2] > 100 µM | [3] > 100 µM | [4] > 100 µM | [6] > 100 µM | [7] > 100 µM | [8] > 100 µM | [20] > 100 µM | [10] > 100 µM | [11] > 100 µM | [13] > 100 µM | [15] > 100 µM

CCOC(=O)c1csc(NC(=O)CN2CCN(c3ccccc3)CC2)n1
inactive: [1] 45.6 µM | [3] > 100 µM | [4] > 100 µM | [5] > 100 µM | [6] > 100 µM | [7] > 100 µM | [8] > 100 µM | [9] > 100 µM | [10] > 100 µM | [11] > 100 µM | [12] > 100 µM | [13] 94 µM | [14] > 100 µM | [15] > 100 µM

N#CCCN(CCC#N)c1ccc(/C=C(/NC(=O)Nc2ccccc2Cl)NC(=O)c2cc([N+](=O)[O-])ccc2Cl)cc1
inactive: [1] 42 µM | [3] 55.7 µM | [16] 56.1 µM | [17] > 100 µM | [5] > 100 µM | [18] > 100 µM | [6] > 100 µM | [19] > 100 µM | [20] > 100 µM | [10] > 100 µM | [14] > 100 µM | [15] > 100 µM

CN(C)CCCNC(=O)N/N=C\c1cccc2ccccc12
inactive: [1] > 10 µM | [2] > 10 µM | [3] 4.45 µM | [4] > 10 µM | [6] > 10 µM | [7] > 10 µM | [8] > 10 µM | [20] > 10 µM | [9] > 10 µM | [12] > 10 µM | [13] > 10 µM | [15] > 10 µM

c1ccc2c(CCNC3=NCCO3)cccc2c1
inactive: [1] > 10 µM | [2] > 10 µM | [3] 4.26 µM | [4] > 10 µM | [5] > 10 µM | [6] > 10 µM | [7] > 10 µM | [8] > 10 µM | [20] > 10 µM | [9] > 10 µM | [10] > 10 µM | [11] > 10 µM | [12] > 10 µM | [13] > 10 µM | [14] > 10 µM | [15] > 10 µM

CN(C)CCNC(=O)c1cccc2c(=O)c3ccccc3oc12
inactive: [1] 41.3 µM | [3] 18.1 µM | [16] 29.6 µM | [17] 22.9 µM | [4] 26.7 µM | [5] 25.2 µM | [18] 37.1 µM | [6] 39 µM | [19] 34.9 µM | [20] 13.7 µM | [9] 25.4 µM | [10] 44.4 µM | [15] 30.3 µM

O=C(Nc1ccccc1)N1CCN(C(=O)Nc2ccccc2)C1=S
inactive: [1] > 100 µM | [2] 35.9 µM | [3] 23.7 µM | [5] 28.1 µM | [6] > 100 µM | [8] > 100 µM | [20] 47.6 µM | [9] > 100 µM | [10] > 100 µM | [11] > 100 µM | [12] > 100 µM | [13] 40.9 µM | [14] 41.7 µM | [15] 23.4 µM
